Tested on: Karpas 299 human T cell lymphoma tumor
Assay: Karpas 299 xenograft efficacy study
Assay type: in vivo, mice
Details: IV q2dx3: VAR2-Compound O 12, VAR2 12, Compound 886 0.312 mg/kg
Protocol: Female C.B-17/IcrHsd-Prkdcscid mice (Harlan Laboratories) were implanted subcutaneously in the back with the Karpas 299 human T cell lymphoma tumor cell line. Karpas 299 was established from the peripheral blood of a person with T cell non-Hodgkin's lymphoma in 1986; now classed as CD30+ anaplastic large cell lymphoma (ALCL). The lab stocks were mycoplasma negative. […] The mean tumor volume on treatment day (day 21) was greater than 150 mm^3. Test articles were administered intravenously on Day 1, 3, and 6 (total of three injections) at the doses indicated in the study grouping table. Body weights and tumor volumes were measured every Monday, Wednesday, and Friday. Animals remained on study until their tumors reached 800 mm^3 in size or they otherwise required euthanasia due to achieving a humane endpoint.

CN[C@H](C(=O)N[C@H](C(=O)N(C)[C@H](/C=C(\C)C(=O)NS(=O)(=O)c1ccc(N)cc1)C(C)C)C(C)(C)C)C(C)(C)c1ccccc1 [Compound 886, (S,E)-N-(4-Aminophenylsulfonyl)-2,5-dimethyl-4-((S)—N,3,3-trimethyl-2-((S)-3-methyl-2-(methylamino)-3-phenylbutanamido)butanamido)hex-2-enamide]
tumor volume, two-way ANOVA Bonferroni posttests (VAR2 versus, Study Day 21): ns (P > 0.05 = ns (not significant))
tumor volume, two-way ANOVA Bonferroni posttests (VAR2 versus, Study Day 23): ns (P > 0.05 = ns (not significant))
tumor volume, two-way ANOVA Bonferroni posttests (VAR2 versus, Study Day 26): ns (P > 0.05 = ns (not significant))
tumor volume, two-way ANOVA Bonferroni posttests (VAR2 versus, Study Day 28): * (P < 0.05 = *)
tumor volume, two-way ANOVA Bonferroni posttests (VAR2 versus, Study Day 30): ** (P < 0.01 = **)
tumor volume, two-way ANOVA Bonferroni posttests (Vehicle versus, Study Day 21): ns (P > 0.05 = ns (not significant))
tumor volume, two-way ANOVA Bonferroni posttests (Vehicle versus, Study Day 23): ns (P > 0.05 = ns (not significant))
tumor volume, two-way ANOVA Bonferroni posttests (Vehicle versus, Study Day 26): * (P < 0.05 = *)
tumor volume, two-way ANOVA Bonferroni posttests (Vehicle versus, Study Day 28): *** (P < 0.001 = ***)
tumor volume, two-way ANOVA Bonferroni posttests (Vehicle versus, Study Day 30): *** (P < 0.001 = ***)
